Measured values published in patent US9957219B2, “Antidiabetic bicyclic compounds” (Merck Sharp & Dohme Corp., priority 2013, dated 2018).
pEC50: −log10 of the molar value.

Assays:
Human GPR40 [1] = biological target: T1, Human GPR40 (Homo sapiens, UniProt O14842); test: Inositol Phosphate Turnover (IP1) assay in HEK cells stably expressing human GPR40; format: cell-based; parameters: expressed in transfected cells; host or cells: HEK cells stably expressing the aequorin reporter
Procedure: (§1) Human and mouse GPR40 stable cell-lines were generated in CHO cells stably expressing NFAT BLA (Beta-lactamase). A human GPR40 stable cell-line was generated in HEK cells stably expressing the acquorin expressing reporter. The expression plasmids were transfected using lipofectamine (Life Technologies) following manufacturer's instructions. Stable cell-lines were generated following drug selection.
The assay was performed in 96-well format. HEK cells stably expressing human GPR40 were plated to be 60-80% confluent within 72 h. After 72 h, the plates were aspirated and the cells washed with inositol-free DMEM (ICN). The wash media was replaced with 150 μL of 3H-inositol labeling media (inositol-free media containing 0.4% human albumin or 0.4% mouse albumin, 1× pen/strep antibiotics, glutamine, 25 mM HEPES to which was added 3H-myo-inositol NEN #NET114A 1 mCi/mL, 25 Ci/mmol diluted 1:150 in loading media with a final specific radioactivity of 1 μCi/150 μL). Alternatively, the human and mouse albumin were added after the overnight labeling step before the addition of LiCl.
The assay was typically run the next day after 18 h labeling. On the day of the assay, 5 μL of 300 mM LiCl were added to all wells and incubated at 37 degrees for 20 min. 0.75 μL of 200× compounds were added and incubated with the cells for 60 min at 37 degrees. The media was then aspirated off and the assay terminated with the addition of 60 μL 10 mM formic acid. The cells were lysed for 60 min at room temperature. 15-30 μL of lysate was mixed with 70 μL/1 mg YSi SPA beads (Amersham) in clear bottom Isoplates. The plates were shaken for 2 h at room temperature. Beads were allowed to settle and the plates are counted in the Wallac Microbeta.

Human GPR40 [2] = biological target: T1, Human GPR40; test: FLIPR assay, agonist-induced calcium mobilization in GPR40/CHO NFAT BLA cells; format: cell-based; parameters: expressed in transfected cells
Procedure: as §1
FLIPR (Fluorimetric Imaging Plate Reader, Molecular Devices) assays were performed to measure agonist-induced calcium mobilization of the stable clones. For the FLIPR assay, one day before assay, GPR40/CHO NFAT BLA cells were seeded into black-wall-clear-bottom 384-well plates (Costar) at 1.4×10e4 cells/20 μL medium/well. The cells were incubated with 20 μl/well of the assay buffer (HBSS, 0.1% BSA, 20 mM HEPES, 2.5 mM probenecid, pH 7.4) containing 8 μM fluo-4, AM, 0.08% pluronic acid at room temperature for 100 minutes. Fluorescence output was measured using FLIPR. Compounds were dissolved in DMSO and diluted to desired concentrations with assay buffer. 13.3 μL/well of compound solution was added.

T1 sequence (O14842 whole entry): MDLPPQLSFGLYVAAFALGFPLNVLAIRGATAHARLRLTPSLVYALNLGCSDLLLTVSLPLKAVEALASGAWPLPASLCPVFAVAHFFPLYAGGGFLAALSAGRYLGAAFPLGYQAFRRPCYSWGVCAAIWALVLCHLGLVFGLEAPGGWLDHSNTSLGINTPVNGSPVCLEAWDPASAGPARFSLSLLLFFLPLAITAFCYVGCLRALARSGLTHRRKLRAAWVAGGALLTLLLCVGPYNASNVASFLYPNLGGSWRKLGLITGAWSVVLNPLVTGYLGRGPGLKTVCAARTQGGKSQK

| pEC50 (Human GPR40 [1]) | pEC50 (Human GPR40 [2]) | SMILES |
| --- | --- | --- |
| 7.19 | 8.70 | COc1ccc(F)c(-c2ccc3c(c2)CC[C@H]3Oc2cccc([C@@H](CC(=O)O)C3CC3)c2)c1 [Example 1] |
| 8.54 | 9.40 | COc1ccc(F)c(-c2ccc3c(c2)CC[C@H]3Oc2cccc([C@H](C3CC3)[C@H](C)C(=O)O)c2)c1 [Example 2] |
| 8.55 | 9.70 | COc1ccc(F)c(-c2ccc3c(c2)CC[C@H]3Oc2cccc([C@H](C3CC3)[C@H](C)C(=O)O)c2F)c1 [Example 4] |
| 6.81 | 8.10 | COc1ccc(F)c(-c2ccc3c(c2)CC[C@H]3Oc2cccc([C@H](C3CC3)[C@@H](C)C(=O)O)c2F)c1 [Example 5] |
| 6.39 | 7.66 | COc1ccc(F)c(-c2ccc3c(c2C#N)CC[C@H]3Oc2cccc([C@@H](CC(=O)O)C3CC3)c2)c1 [Example 30] |
| 5.67 | 7.44 | COc1ccc(F)c(-c2cc(F)c3c(c2)CC[C@H]3Oc2cccc([C@@H](CC(=O)O)C3CC3)c2)c1 [Example 31] |
| 8.35 | 9.40 | COc1ccc(F)c(-c2ccc3c(c2F)CC[C@H]3Oc2cccc([C@H](C3CC3)[C@H](C)C(=O)O)c2)c1 [Example 32] |
| 6.81 | 7.92 | COc1ccc(F)c(-c2cc3c(cc2F)[C@H](Oc2cccc([C@@H](CC(=O)O)C4CC4)c2)CC3)c1 [Example 33] |
| 6.97 | 8.40 | COc1ccc(F)c(-c2ccc3c(c2F)CC[C@H]3Oc2cccc([C@@H](CC(=O)O)C3CC3)c2)c1 [Example 34] |
| 8.54 | 9.70 | C[C@H](C(=O)O)[C@H](c1cccc(O[C@@H]2CCc3cc(-c4cc(O)ccc4F)ccc32)c1)C1CC1 [Example 35] |
| 6.45 | 8.15 | COc1ccc(F)c(-c2ccc3c(c2Cl)CC[C@H]3Oc2cccc([C@@H](CC(=O)O)C3CC3)c2)c1 [Example 36] |
| 6.84 | 9.00 | COc1ccc(F)c(-c2ccc3c(c2-c2cccc4ccn(C)c24)CC[C@H]3Oc2cccc([C@H](C3CC3)[C@H](C)C(=O)O)c2)c1 [Example 37] |
| 6.05 | 7.77 | COc1ccc(F)c(-c2ccc3c(n2)CC[C@H]3Oc2cccc([C@@H](CC(=O)O)C3CC3)c2)c1 [Example 38] |
| 6.82 | 8.30 | COc1ccc(F)c(-c2cc3c(cc2F)[C@H](Oc2cccc([C@@H](CC(=O)O)C4CC4)c2)CC3)c1 [Example 39] |
| 7.04 | 8.70 | COc1ccc(F)c(-c2cnc3c(c2)CC[C@H]3Oc2cccc([C@H](C3CC3)[C@H](C)C(=O)O)c2)c1 [Example 40] |
| 7.82 | > 9.70 | COc1ccc(F)c(-c2cc3c(cn2)[C@H](Oc2cccc([C@H](C4CC4)[C@H](C)C(=O)O)c2)CC3)c1 [Example 41] |
